This is an account of results in patent publication US20150285812A1, “Fluorescence-Labelled Fatty Acids and Uses Thereof” (SANOFI, priority 2012, published 2015).

Data set [1] can be described thus: log D7.4 determination by RP-HPLC, similar to the water/octanol partition coefficient method. The class given is physicochemical. Particulars: pH 7.4, RP-HPLC C18, range −1 to +6. Here is the method: log D7.4 values were determined by a method similar to the partition coefficient method in a water/octanol mixture and were carried out on an RP-HPLC from Waters Alliance (2795) having a C18 column (2×20 mm) with a gradient of morpholinesulfonic acid buffer (pH 7.4) and acetonitrile. The range was between −1 ([…]) to +6 (lipophilic).

Data set [2] deals with T1, HSA (Homo sapiens, UniProt P02768).
T1 construct: purchased Sigma Aldrich A1887
T1 sequence (P02768 25-609): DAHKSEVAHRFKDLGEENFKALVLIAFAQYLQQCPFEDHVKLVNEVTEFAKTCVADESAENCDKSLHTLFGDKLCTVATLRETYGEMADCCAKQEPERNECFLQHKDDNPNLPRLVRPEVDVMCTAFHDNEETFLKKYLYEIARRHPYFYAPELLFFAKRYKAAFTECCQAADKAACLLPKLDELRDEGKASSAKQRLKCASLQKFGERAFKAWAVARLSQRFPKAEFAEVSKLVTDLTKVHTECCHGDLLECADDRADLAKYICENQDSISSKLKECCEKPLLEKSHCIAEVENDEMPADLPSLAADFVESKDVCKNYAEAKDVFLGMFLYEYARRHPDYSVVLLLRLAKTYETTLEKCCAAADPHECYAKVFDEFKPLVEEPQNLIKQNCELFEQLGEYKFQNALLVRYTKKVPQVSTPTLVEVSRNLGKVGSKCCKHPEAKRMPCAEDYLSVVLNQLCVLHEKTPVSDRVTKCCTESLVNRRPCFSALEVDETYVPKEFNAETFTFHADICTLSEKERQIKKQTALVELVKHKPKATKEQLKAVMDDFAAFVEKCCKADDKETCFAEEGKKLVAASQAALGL
The data set is described as follows: Fluorescence of NBD and dansyl dyes with increasing HSA (FRET effect, emission maxima). The class given is binding. Particulars: for change in fluorescence intensity with increasing HSA concentration: NBD derivatives 25 μM, HSA 1.56 to 200 μM, 480-550 nm, pH 7.4. The procedure:
Absorption and fluorescence of fluorescence-labelled derivatives and HSA were carried out in a Varioskan™ microplate reader (Thermo Electron Corporation). 96 well (Costar, half area, flat bottom) microplates were used for absorption measurements and 384 well (Greiner Bio One, small volume, black) microplates from Greiner Bio One were used for fluorescence measurements. All measurements were carried out at pH 7.4 and room temperature.
5.00 ml of a 400 μM solution were prepared from the HSA stock solution. From this solution a geometric dilution series with 7 dilution steps, a dilution factor of 0.5 and a final volume of each concentration of 2.5 ml were prepared.
Defined concentrations of the fluorescence-labelled compounds were selected from the preceding experiment without HSA above and double-concentrated solutions thereof were prepared to take into account the later 1:1 dilution. For each fluorescence-labelled compound (12-17; 19-25) 1.00 ml of these double-concentrations was prepared. 50 μl of the dye solutions were introduced into a 96 well microplate and 50 μl each of the HSA dilution series were added. By mixing the solutions the concentrations of dye derivatives and the HSA solution were halved. The measurements of the absorption and fluorescence were carried out in analogy to the above experimental procedure without HSA.
In analogy to the absorption measurement the effect of HSA on the fluorescence of the dyes (12-17; 19-25) was determined. The same concentrations of NBD and dansyl dyes and the same concentration range for HSA as already described above were used.

For data set [3], the target named is T1, HSA. Nature of the data set: Displacement of NBD derivatives on HSA by natural fatty acids C6 to C16 (fluorescence). The class given is binding. Further details: key to displacement of NBD C8 (15) bound to HSA / displacement of NBD C10 (16) bound to HSA / displacement of NBD C12 (17) bound to HSA: + stands for displacement; − for no displacement. The following applies: for relative binding affinity of the NBD dye for HSA: ranking among NBD C8, C10 and C12 from the competition experiments. The procedure: Dilution series for competition experiments with the fatty acids C6 to C16 were diluted with phosphate-buffered saline solution (DPBS buffer). Geometric dilution series of each fatty acid were prepared in 384 well microplates with a starting concentration of 2500 μM and a dilution factor of 0.33 and also 9 dilution steps. The final volume of each concentration was 80 μl. The plated-out fatty acids were stored in the deep freeze (−25° C.) until use.
For displacement experiments 2.50 ml of a 25 μM HSA solution were used per dye derivative. Due to the subsequent dilution steps the HSA concentration was doubled twice such that 2.50 ml of […] solution were prepared.
The dye concentrations were also doubled twice by the following dilution steps. 2.50 ml of each dye solution were needed. 2.10 ml of the respective dye solution were then mixed with 2.10 ml of the 100 μM HSA solution. The respective concentrations of the solutions halve here once. 50 μl of the mixture per well were introduced into a 96 well microplate.
The fatty acid microplates were brought to room temperature and 50 μl each of the dilution series were pipetted into the HSA-dye mixture. The concentrations of all solution constituents were thereby halved once again. In analogy to the experiments measuring the fluorescence of the fluorescence-labelled derivatives without HSA above, the solutions were pipetted from the 96 well microplate into a 384 well microplate. Absorption was not measured. The fluorescence measurement without a wavelength scan was carried out in analogy to the above-referenced experiment.
A concentration of 25 μM and a binding ratio of the NBD derivatives to HSA of 1:1 were employed for the displacement studies. For each dye derivative an NBD-HSA mixture with a concentration of 25 μM was prepared.

The target in data set [4] is T1, HSA. Nature of the data set: Job plot of the fluorescence: stoichiometry of labelled fatty acids to HSA. Particulars: maximum in the curve or none. The class given is binding. The procedure: The stoichiometry of NBD- and dansyl-labelled fatty acids bound to HSA was determined by Job plots, also called the “method of continuous variability” as different mole fractions of the respective binding partners are mixed with one another and then measured spectroscopically. Solutions of equimolar concentrations of HSA and dye were mixed such that the mole fractions of the substances were varied but the total molarity of the sample solution stayed constant. For short NBD derivatives C2 to C6 (12-14) no binding to HSA was confirmed, whereas binding ratios for long NBD derivatives C8 to C12 (15-17) to HSA were 1:1. For short dansyl derivatives C2 to C8 (19-22) binding ratios for HSA were 2:1, whereas the long dansyl derivatives C10 and C12 (23-24) bound to HSA in the ratio of 4:1. The finding that even dansyl C2 (19) was bound to HSA led to the question as to what extent the dansyl label itself is recognized by HSA. Because even dansyl methylamide (25) bound to HSA, even though it lacks a carboxyl group, it seems that the dye label could also bind to HSA.
For the Job plot the dye and HSA solutions were employed in equimolar amounts. 10.00 ml of 100 μM HSA solution and in each case 2.00 ml of a 100 μM dye solution (12-17; 19-25) were prepared from the above stock solutions. For the Job plot method the dye solutions were mixed with the HSA solution in different ratios as described below in Table 8. […] According to the same dilution scheme the dye solutions were also mixed with DPBS buffer for measuring the blank values of the fluorescence-labelled derivatives (see K. C. Ingham, Analytical Biochemistry 68 (1975) 660-663). […] Absorption was not measured. A fluorescence measurement without a wavelength scan was also carried out in analogy to the above experiment without HSA.
For NBD derivatives (12-17) and HSA 100 μM solutions were used. […] In total 11 solutions per dye derivative were prepared for fluorescence measurement by mixing the two binding partners. […] The fluorescence intensities were plotted against the mole fractions of the binding partners. […]

Setting [5] is: dansyl compound 100 μM, λex = 330 nm.
[6] abbreviates: NBD compound 25 μM, λex = 480 nm.
Where [7] appears, read: NBD-HSA mixture 25 μM, 1:1, competitor natural fatty acid.

SMILES strings stand for the structures. Where only a bound is given, the exact number is not on record here.

Consider `CN(C)c1cccc2c(S(=O)(=O)NCCCCCCCCCCCC(=O)O)cccc12` [dansyl C12 (24), 12-(5-Dimethylaminonaphthalene-1-sulfonylamino)dodecanoic acid], for which, in data set [1], the chromatographic logD was 3.49 and the “log D7.4” value is listed as 3.49. Moreover, the “Δλ, shift of emission maximum λem without HSA vs with HSA” value in data set [2] (setting [5]) came out at 66 nm.

The molecule `CN(C)c1cccc2c(S(=O)(=O)NCCCCCC(=O)O)cccc12` [dansyl C6 (21), 6-(5-Dimethylaminonaphthalene-1-sulfonylamino)hexanoic acid] showed a chromatographic logD in data set [1] of 1.56. In addition, the “Δλ, shift of emission maximum λem without HSA vs with HSA” value in data set [2] (setting [5]) is listed as 82 nm.

Turning to `CN(C)c1cccc2c(S(=O)(=O)NCCCC(=O)O)cccc12` [dansyl C4 (20), 4-(5-Dimethylaminonaphthalene-1-sulfonylamino)butanoic acid], in data set [1], the chromatographic logD was 1.21. For the same molecule, in data set [2] (setting [5]), the “Δλ, shift of emission maximum λem without HSA vs with HSA” value came to 88 nm.

As for `O=C(O)CCCNc1ccc([N+](=O)[O-])c2nonc12` [NBD C4 (13), 4-(7-Nitrobenzo[1,2,5]oxadiazol-4-ylamino)butanoic acid], the “log D7.4” value in data set [1] is −0.46. Further, the “Δλ, shift of emission maximum λem without HSA vs with HSA” value in data set [2] (setting [6]) stood at 2 nm. The “change in fluorescence intensity with increasing HSA concentration” value (shortened to “change … with increasing HSA concentration”) in data set [2] was “no changes in fluorescence intensity”.

Molecule `O=C(O)CCCCCNc1ccc([N+](=O)[O-])c2nonc12` [NBD C6 (14), 6-(7-Nitrobenzo[1,2,5]oxadiazol-4-ylamino)hexanoic acid] returned a chromatographic logD in data set [1] of 0.53. The “Δλ, shift of emission maximum λem without HSA vs with HSA” value in data set [2] (setting [6]) was determined as 0 nm. The “change … with increasing HSA concentration” value in data set [2] is “no changes in fluorescence intensity”.

Take `CCCCCCCCCC(=O)O` [FA C10, capric acid]: in data set [3] (setting [7]), the “displacement of NBD C8 (15) bound to HSA” value is reported as “+”, the “displacement of NBD C8 (15) from HSA” value is listed as “displaced”, the “displacement of NBD C10 (16) bound to HSA” value was “unclear” and the “displacement of NBD C12 (17) bound to HSA” value is “−”. Besides, the “displacement of NBD C12 (17) from HSA” value in data set [3] (setting [7]) was “no longer capable of displacing”.

Regarding `CN(C)c1cccc2c(S(=O)(=O)NCC(=O)O)cccc12` [dansyl C2 (19), (5-Dimethylaminonaphthalene-1-sulfonylamino)ethanoic acid], in data set [4], the “binding to HSA (qualitative)” value is on record as “bound to HSA”. In data set [1], this molecule showed a chromatographic logD of 1.02. Besides, the “Δλ, shift of emission maximum λem without HSA vs with HSA” value in data set [2] (setting [5]) is listed as 94 nm.

Consider `O=C(O)CCCCCCCNc1ccc([N+](=O)[O-])c2nonc12` [NBD C8 (15), 8-(7-Nitrobenzo[1,2,5]oxadiazol-4-ylamino)octanoic acid], for which, in data set [3], the “relative binding affinity of the NBD dye for HSA” value was “lowest affinity”. The molecule further had a chromatographic logD in data set [1] of 1.29. The “Δλ, shift of emission maximum λem without HSA vs with HSA” value in data set [2] (setting [6]) is 10 nm. Besides, the “change … with increasing HSA concentration” value in data set [2] is “greatest increase in fluorescence intensity”.

Turning to `CCCCCCCCCCCCCC(=O)O` [FA C14, myristic acid], in data set [3] (setting [7]), the “displacement of NBD C8 (15) bound to HSA” value is “+”, the “displacement of NBD C8 (15) from HSA” value is on record as “displaced”, the “displacement of NBD C10 (16) bound to HSA” value is given as “+” and the “displacement of NBD C12 (17) bound to HSA” value was “+”.

Consider `CCCCCCCCCCCC(=O)O` [FA C12, lauric acid], for which, in data set [3] (setting [7]), the “displacement of NBD C8 (15) bound to HSA” value was “+”, the “displacement of NBD C8 (15) from HSA” value is “displaced”, the “displacement of NBD C10 (16) bound to HSA” value was “+” and the “displacement of NBD C12 (17) bound to HSA” value is listed as “+”. Also, the “displacement of NBD C12 (17) from HSA” value in data set [3] (setting [7]) was “displaced”.

`CN(C)c1cccc2c(S(=O)(=O)NCCCCCCCCCC(=O)O)cccc12` [dansyl C10 (23), 10-(5-Dimethylaminonaphthalene-1-sulfonylamino)decanoic acid] gave a chromatographic logD in data set [1] of 2.74. For the same molecule, the “Δλ, shift of emission maximum λem without HSA vs with HSA” value in data set [2] (setting [5]) was 68 nm.

In the case of `O=C(O)CNc1ccc([N+](=O)[O-])c2nonc12` [NBD C2 (12), 2-(7-nitrobenzo[1,2,5]oxadiazol-4-ylamino)ethanoic acid], the “log D7.4” value in data set [1] is on record as < −1. Also, the “Δλ, shift of emission maximum λem without HSA vs with HSA” value in data set [2] (setting [6]) is on record as 0 nm. For the same molecule, the “change … with increasing HSA concentration” value in data set [2] is recorded as “no changes in fluorescence intensity”.

As to `CCCCCC(=O)O` [FA C6, caproic acid], in data set [3] (setting [7]), the “displacement of NBD C8 (15) bound to HSA” value is listed as “−”, the “displacement of NBD C8 (15) from HSA” value is “did not displace”, the “displacement of NBD C10 (16) bound to HSA” value was “−” and the “displacement of NBD C10 (16) from HSA” value is given as “not displaced”. Besides, the “displacement of NBD C12 (17) bound to HSA” value in data set [3] (setting [7]) is given as “−”.

With `CN(C)c1cccc2c(S(=O)(=O)NCCCCCCCC(=O)O)cccc12` [dansyl C8 (22), 8-(5-Dimethylaminonaphthalene-1-sulfonylamino)octanoic acid], in data set [1], the chromatographic logD stood at 2.1. Besides, in data set [2] (setting [5]), the “Δλ, shift of emission maximum λem without HSA vs with HSA” value worked out at 74 nm.

As for `O=C(O)CCCCCCCCCNc1ccc([N+](=O)[O-])c2nonc12` [NBD C10 (16), 10-(7-Nitrobenzo[1,2,5]oxadiazol-4-ylamino)decanoic acid], the “relative binding affinity of the NBD dye for HSA” value is recorded as “minimally smaller” in data set [3] and “binding strength which lies between these two” in data set [3] (listed as NBD C10). In data set [1], the chromatographic logD was determined as 2.03. For the same molecule, in data set [2] (setting [6]), the “Δλ, shift of emission maximum λem without HSA vs with HSA” value worked out at 16 nm. Besides, the “change … with increasing HSA concentration” value in data set [2] is on record as “increase in fluorescence intensity”.

The term chromatographic logD denotes lipophilicity estimated from chromatographic retention.
